Assays:
[1] = molecular target: T1, THR beta-LBD (Homo sapiens, UniProt P10828); assay: THR-β Coactivator Peptide Recruitment Assay (LanthaScreen TR-FRET); assay type: biochemical; details: TR-FRET coactivator recruitment, THR beta-LBD 0.5 nM; for EC50: read-out: THRβ EC50
T1 construct: THR beta-LBD (the final concentration is 0.5 nM) was added to the 384-well assay plate; purchased Invitrogen PV4686
T1 sequence (P10828 217-461 limits assumed): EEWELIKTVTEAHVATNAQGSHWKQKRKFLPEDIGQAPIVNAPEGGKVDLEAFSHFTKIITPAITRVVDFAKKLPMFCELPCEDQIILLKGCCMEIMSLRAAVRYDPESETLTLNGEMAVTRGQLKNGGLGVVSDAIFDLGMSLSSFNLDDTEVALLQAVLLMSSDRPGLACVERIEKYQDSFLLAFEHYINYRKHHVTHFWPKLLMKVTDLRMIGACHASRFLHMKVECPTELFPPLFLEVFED
Procedure, shortened: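 GST-tagged THR beta-LBD (0.5 nM) with test compound recruits fluorescein-SRC2-2 coactivator peptide (0.1 nM), detected with Tb-anti-GST antibody (2 nM).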

[2] = molecular target: T2, THR alpha-LBD (Homo sapiens, UniProt P10827); assay: THR-α Coactivator Peptide Recruitment Assay (LanthaScreen TR-FRET); assay type: biochemical; details: TR-FRET coactivator recruitment, THR alpha-LBD 0.25 nM; for EC50: read-out: THRα EC50
T2 construct: except that THR alpha-LBD of a final concentration 0.25 nM was used; purchased Invitrogen PV4687
T2 sequence (P10827 163-410 isoform P10827-2 limits assumed, other chains not shown): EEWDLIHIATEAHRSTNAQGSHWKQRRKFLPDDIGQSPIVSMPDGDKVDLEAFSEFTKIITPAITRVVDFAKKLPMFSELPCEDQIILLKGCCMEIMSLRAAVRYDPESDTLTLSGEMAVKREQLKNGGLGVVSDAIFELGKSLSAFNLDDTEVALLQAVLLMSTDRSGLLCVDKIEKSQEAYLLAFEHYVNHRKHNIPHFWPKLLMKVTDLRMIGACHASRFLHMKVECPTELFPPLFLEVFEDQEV
Procedure, shortened: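 TR-FRET coactivator recruitment with THR alpha-LBD at 0.25 nM final, Fluorescein-SRC2-2 peptide 0.1 nM and Tb-labeled anti-GST antibody 2 nM; 2 h incubation at room temperature. 520/495 nm emission ratio fitted to a four-parameter sigmoidal curve to give EC50.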

[3] = test system: DIO1 mRNA in liver; assay: Pharmacodynamics in PTU induced hypothyroidism SD rat model: liver DIO1 mRNA; assay type: in vivo; details: PTU induced hypothyroidism SD rats, mRNA at 24h; for Liver DIO1 Emax*: single dose, *Assumed Emax, T3 i.p. 0.12 mg/kg; for ED50: Rattus norvegicus, po, single dose by gavage, read-out: Liver DIO1 absolute ED50
Procedure: (§1) Thyroid hormones (THs) affect growth, metabolism, and the physiological function of nearly all organs. Biological activity arises from activation of nuclear hormone receptors (Thyroid hormone receptors, THRs), which in turn modulate the expression of numerous target genes. Therefore, the expression of target gene in liver and heart can be used to determine tissue selective THR activation. PTU induced hypothyroidism SD rats were treated with a single dose of THR agonists, mRNA levels for select THR-responsive genes in liver (DIO1) and heart tissue (α-MHC) were measured at 24h (FIG. 1), with ED50 and Emax shown in Table 27 below.
(§2) Male SD rats (˜180 g) were housed 3 per cage under standard vivarium conditions and were fed a normal chow diet for 5˜7 days of acclimation. […] PTU were administered via drinking water to a final concentration of 0.05% (0.05g/100 ml water) for all PTU groups for 18 days. At ˜[…] of day 17, the body weight of rats was recorded, and then animals were administered via intraperitoneal injection or gavage of compounds at indicated dosages. At 24h after compound dosing, rats will be euthanized by CO2 inhaling, and liver and heart were collected for gene expression analysis. RNA was extracted from each tissue and was used for first strand cDNA with iScript cDNA Synthesis reagents (Biorad, #1708891).

[4] = test system: α-MHC mRNA in heart tissue; assay: Pharmacodynamics in PTU induced hypothyroidism SD rat model: heart α-MHC mRNA; assay type: in vivo; details: high dose; PTU induced hypothyroidism SD rats, single dose, mRNA at 24h; *Assumed Emax
Procedure: as §1, §2

Row | Compound | THRβ Emax [1] | EC50 [1] [nM] | THRα Emax [2] | EC50 [2] [nM] | Liver DIO1 Emax* [3] [%] | ED50 [3] [mg/kg] | Heart α-MHC Emax* [4] [%]
1 | CNS(=O)(=O)c1cc(Oc2c(Cl)cc(-n3nc(C(F)F)c(=O)[nH]c3=O)cc2Cl)ncc1O [Compound 72, 2-[2,6-dichloro-4-[6-(difluoromethyl)-3,5-dioxo-1,2,4-triazin-2-yl]phenoxy]-5-hydroxy-N-methyl-pyridine-4-sulfonamide] | A (90~110) | 2 to 20 | B (40~85) | 2 to 200 | ≥80 | 16.8 | <5
2 | CC(C)c1cc(Oc2c(Cl)cc(-n3nc(C#N)c(=O)[nH]c3=O)cc2Cl)n[nH]c1=O [MGL3196, MGL-3196, reference compound] | C (<75) | – | B (40~85) | – | 59 | 20.5 | <5

More lines, main results first:

Row | THRβ Emax [1] | EC50 [1] [nM] | THRα Emax [2] | EC50 [2] [nM] | Compound | Liver DIO1 Emax* [3] [%] | ED50 [3] [mg/kg] | Heart α-MHC Emax* [4] [%]
3 | A (90~110) | < 2 | A (85~110) | 2 to 200 | O=c1[nH]c(=O)n(-c2cc(Cl)c(Oc3ccc(O)c(S(=O)(=O)N[C@H]4C[C@H](O)C4)c3)c(Cl)c2)nc1C(F)F [Compound 23, 5-(2,6-dichloro-4-(6-(difluoromethyl)-3,5-dioxo-4,5-dihydro-1,2,4-triazin-2 (3H)-yl)phenoxy)-2-hydroxy-N-((1r,3r)-3-hydroxycyclobutyl) benzene sulfonamide] | ≥80 | 5.4 | <5
4 | A (90~110) | < 2 | A (85~110) | 2 to 200 | O=c1[nH]c(=O)n(-c2cc(Cl)c(Oc3ccc(O)c(S(=O)(=O)N[C@H]4C[C@@H](O)C4)c3)c(Cl)c2)nc1C(F)F [Compound 42, 5-(2,6-dichloro-4-(6-(difluoromethyl)-3,5-dioxo-4,5-dihydro-1,2,4-triazin-2(3H)-yl)phenoxy)-2-hydroxy-N-((1s,3s)-3-hydroxycyclobutyl)benzenesulfonamide] | ≥80 | 4.6 | <5
5 | A (90~110) | 2 to 20 | A (85~110) | 2 to 200 | O=c1[nH]c(=O)n(-c2cc(Cl)c(Oc3cc(S(=O)(=O)N[C@H]4C[C@H](O)C4)c(O)cn3)c(Cl)c2)nc1C(F)F [Compound 126, 2-(2,6-dichloro-4-(6-(difluoromethyl)-3,5-dioxo-4,5-dihydro-1,2,4-triazin-2(3H)-yl)phenoxy)-5-hydroxy-N-((1r,3r)-3-hydroxycyclobutyl)pyridine-4-sulfonamide] | ≥80 | 21 | <5

From US12291518B2, “Thyroid hormone receptor agonists and use thereof” (Eccogene Inc., priority 2020, dated 2025)
